pIC50: −log10 of the molar value. Where “and” joins values, the source holds several entries; their conditions need not be identical. Identical values can stand only once.
Assays:
[1] = molecular target: Glycogen synthase kinase-3 alpha (Homo sapiens, UniProt P49840); assay: TR-FRET Assay
Method in brief: (§1)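 Signal is measured as TR-FRET between a terbium anti-phospho-Ser641 antibody and streptavidin-d2, added after an EDTA quench. Compounds are preincubated 30 min in assay buffer.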

[2] = molecular target: Glycogen synthase kinase-3 beta (Homo sapiens, UniProt P49841); assay: TR-FRET Assay
Chain of Glycogen synthase kinase-3 beta (P49841 whole entry): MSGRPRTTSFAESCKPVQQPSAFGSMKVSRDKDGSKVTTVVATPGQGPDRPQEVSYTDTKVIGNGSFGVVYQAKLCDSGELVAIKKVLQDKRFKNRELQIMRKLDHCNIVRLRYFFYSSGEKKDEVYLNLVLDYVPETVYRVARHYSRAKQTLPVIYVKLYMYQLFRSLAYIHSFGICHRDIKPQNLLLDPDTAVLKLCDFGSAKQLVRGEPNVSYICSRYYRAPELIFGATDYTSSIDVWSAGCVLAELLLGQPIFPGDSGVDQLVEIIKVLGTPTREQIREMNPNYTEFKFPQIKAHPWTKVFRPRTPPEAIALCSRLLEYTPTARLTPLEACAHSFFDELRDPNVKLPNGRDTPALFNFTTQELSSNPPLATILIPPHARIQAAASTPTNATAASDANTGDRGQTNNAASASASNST
Method in brief: as §1

Chain of Glycogen synthase kinase-3 alpha (P49840 whole entry): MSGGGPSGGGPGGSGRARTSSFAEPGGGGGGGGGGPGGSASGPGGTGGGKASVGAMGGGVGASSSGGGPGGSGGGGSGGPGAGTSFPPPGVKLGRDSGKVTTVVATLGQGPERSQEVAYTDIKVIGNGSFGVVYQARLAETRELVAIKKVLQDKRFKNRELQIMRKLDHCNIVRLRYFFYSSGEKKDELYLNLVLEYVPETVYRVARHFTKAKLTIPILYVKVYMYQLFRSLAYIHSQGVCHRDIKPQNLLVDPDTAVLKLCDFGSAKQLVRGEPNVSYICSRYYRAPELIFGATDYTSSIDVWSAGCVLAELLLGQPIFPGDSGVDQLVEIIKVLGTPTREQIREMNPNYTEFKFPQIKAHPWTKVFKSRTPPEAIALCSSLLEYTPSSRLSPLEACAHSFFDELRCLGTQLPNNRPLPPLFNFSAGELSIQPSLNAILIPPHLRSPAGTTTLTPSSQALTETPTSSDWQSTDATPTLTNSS

pIC50 [1] | pIC50 [2] | SMILES
> 7.00 | > 7.00 | CCCC(=O)N1CC2(C1)CC1(CO2)C2=C(N=NC2)NC2=C1C(=O)CC(C)(C)C2 (stereo unspecified) [US20250313563, Compound 947300]
> 7.00 | 6.00 to 7.00 | CC1(C)CC(=O)C2=C(C1)NC1=C(CN=N1)[C@@]21CCCN(S(=O)(=O)C2CC2)CC1 [US20250313563, Compound 932639]
> 7.00 and 6.00 to 7.00 | > 7.00 and 5.30 to 6.00 | CC[C@]1(c2cccc(C(F)(F)F)c2)C2=CN=NC2NC2=C1C(=O)C[C@H](C)C2 (stereo partly specified) [US20250313563, Compound 810450]
6.00 to 7.00 | 5.30 to 6.00 | CC[C@]1(c2cccc(Br)c2)C2=CN=NC2NC2=C1C(=O)CC(C)(C)C2 (stereo partly specified) [US20250313563, Compound 790733]
5.30 to 6.00 | 6.00 to 7.00 | CC1(C)CC(=O)C2=C(C1)NC1N=NC(CC(F)(F)F)=C1[C@@]21CCc2c(F)cccc21 (stereo partly specified) [US20250313563, Compound 816837]
> 7.00 | 6.00 to 7.00 | CCC1(c2cccc(N3CCCC3=O)c2)C2=CN=NC2NC2=C1C(=O)CC(C)(C)C2 (stereo unspecified) [US20250313563, Compound 865171]
> 7.00 | > 7.00 | CC[C@]1(c2cccc(N3CCOCC3)c2)C2=C(CC(C)(C)CC2=O)NC2N=NC(C(F)(F)F)=C21 (stereo partly specified) [US20250313563, Compound 816885]
> 7.00 | > 7.00 | CC[C@@]1(c2cccc(-c3cn(C)nc3C(F)(F)F)c2)C2=CN=NC2NC2=C1C(=O)NC(C)(C)C2 (stereo partly specified) [US20250313563, Compound 950563]
6.00 to 7.00 | 6.00 to 7.00 | C[C@@H]1CC(=O)C2=C(C1)NC1=C(CN=N1)C21CCOCC1 [US20250313563, Compound 912079]
> 7.00 | > 7.00 | Cn1nccc1S(=O)(=O)N1CC2(C1)C1=C(N=NC1)NC1=C2C(=O)CC(C)(C)C1 [US20250313563, Compound 932648]
> 7.00 | 6.00 to 7.00 | CCn1cc(N2CCC3=C(C2=O)[C@](CC)(c2cccc(C(F)(F)F)c2)C2=CN=NC2N3)cn1 (stereo partly specified) [US20250313563, Compound 949867]
> 7.00 | > 7.00 | C[C@@H]1CC[C@@]2(C1)C1=C(N=NC1)NC1=C2C(=O)CC(C)(C)C1 [US20250313563, Compound 897750]
> 7.00 | > 7.00 | CCC1(c2cccc(-c3ccnc(C)c3OC)c2)C2=CN=NC2NC2=C1C(=O)CC(C)(C)C2 (stereo unspecified) [US20250313563, Compound 945458]
6.00 to 7.00 | 6.00 to 7.00 | CC1(C)CC(=O)C2=C(C1)NC1=C(CN=N1)[C@]21COC2(CN(C(=O)Cc3ccccc3)C2)C1 [US20250313563, Compound 948036]
> 7.00 | > 7.00 | CC[C@]1(c2cccc(Cl)c2)C2=C(CC(C)(C)CC2=O)NC2N=NC(C)=C21 (stereo partly specified) [US20250313563, Compound 790612]
> 7.00 | 6.00 to 7.00 | CCC1(c2cccc(-c3ccnc4c3CCC4)c2)C2=C(CC(C)(C)NC2=O)NC2N=NC(C)=C21 (stereo unspecified) [US20250313563, Compound 947675]
6.00 to 7.00 | 5.30 to 6.00 | CC1(C)CC(=O)C2=C(C1)NC1=C(CN=N1)[C@]21COC2(CN(S(C)(=O)=O)C2)C1 [US20250313563, Compound 926823]
> 7.00 | 6.00 to 7.00 | COc1ccccc1S(=O)(=O)N1CCCC2(CC1)C1=CN=NC1NC1=C2C(=O)CC(C)(C)C1 (stereo unspecified) [US20250313563, Compound 917142]
> 7.00 | > 7.00 | CCCn1nccc1-c1cccc(C2(CC)C3=CN=NC3NC3=C2C(=O)CC(C)(C)C3)c1 (stereo unspecified) [US20250313563, Compound 929400]
> 7.00 | 6.00 to 7.00 | CC[C@@]1(c2cccc(C3=C4CC=C(C)N=C4N=CC3)c2)C2=CN=NC2NC2=C1C(=O)NC(C)(C)C2 (stereo partly specified) [US20250313563, Compound 948143]
> 7.00 | 6.00 to 7.00 | CCC1(c2cccc(N3CCCCC3)c2)C2=C(CC(C)(C)NC2=O)NC2N=NC(C)=C21 (stereo unspecified) [US20250313563, Compound 947674]
> 7.00 | 6.00 to 7.00 | CC[C@@]1(c2cccc(Br)c2)C2=CN=NC2NC2=C1C(=O)C[C@@H](C(F)(F)F)C2 (stereo partly specified) [US20250313563, Compound 826652]
6.00 to 7.00 | 6.00 to 7.00 | CC[C@@]1(c2cccc(-c3ccnn3-c3ccc(F)cc3)c2)C2=CN=NC2NC2=C1C(=O)NC(C)(C)C2 (stereo partly specified) [US20250313563, Compound 950822]
> 7.00 | > 7.00 | CC[C@]1(c2cccc([C@H]3CCOC3)c2)C2=CN=NC2NC2=C1C(=O)CC(C)(C)C2 (stereo partly specified) [US20250313563, Compound 889556]
> 7.00 | 6.00 to 7.00 | CCC1(c2cccc(-c3cc(C)ncc3OC)c2)C2=CN=NC2NC2=C1C(=O)CC(C)(C)C2 (stereo unspecified) [US20250313563, Compound 945468]
6.00 to 7.00 | 5.30 to 6.00 | CC1(C)CC(=O)C2=C(C1)NC1=C(CN=N1)C2(C)c1cc(Cl)ccc1F (stereo unspecified) [US20250313563, Compound 810377]
6.00 to 7.00 | 6.00 to 7.00 | CCC1(c2cccc(N3CCOCC3)c2)C2=C(CC(C)(C)NC2=O)NC2N=NC(C)=C21 (stereo unspecified) [US20250313563, Compound 947564]

pIC50 [1] | pIC50 [2] | SMILES
> 7.00 | > 7.00 and 6.00 to 7.00 | CC[C@]1(c2cccc(Br)c2)C2=C(CC(C)(C)CC2=O)NC2N=NC(C(F)(F)F)=C21 (stereo partly specified) [US20250313563, Compound 810366]
> 7.00 | 6.00 to 7.00 | CC1(C)CC(=O)C2=C(C1)NC1=C(CN=N1)C21COC2(CN(C(=O)C3CCC(F)(F)C3)C2)C1 (stereo unspecified) [US20250313563, Compound 947265]
> 7.00 | > 7.00 | CCC1(c2cccc(S(=O)(=O)C(C)C)c2)C2=C(CC(C)(C)NC2=O)NC2N=NC(C(F)(F)F)=C21 (stereo unspecified) [US20250313563, Compound 947800]
> 7.00 | > 7.00 | CC[C@]1(c2cccc([C@@H]3CCOC3)c2)C2=CN=NC2NC2=C1C(=O)CC(C)(C)C2 (stereo partly specified) [US20250313563, Compound 889557]
> 7.00 | > 7.00 | Cc1cc([C@H]2CC[C@]3(CC2)C2=C(N=NC2)NC2=C3C(=O)CC(C)(C)C2)ccn1 [US20250313563, Compound 948415]
> 7.00 | 6.00 to 7.00 | Cn1ccc(S(=O)(=O)N2CCC3(CC2)C2=C(N=NC2)NC2=C3C(=O)CC(C)(C)[C@H]2F)n1 [US20250313563, Compound 951709]
> 7.00 | 6.00 to 7.00 | CC[C@@]1(c2cccc(N3CCCCC3)c2)C2=CN=NC2NC2=C1C(=O)CC(C)(C)C2 (stereo partly specified) [US20250313563, Compound 810369]
< 5.30 | < 5.30 | CC[C@]1(c2ccccc2)C2=CN=NC2NC2=C1C(=O)[C@@H](C)C[C@@H]2C (stereo partly specified) [US20250313563, Compound 865202]
> 7.00 | > 7.00 | CCC1(c2cccc(-c3cncn3C)c2)C2=CN=NC2NC2=C1C(=O)CC(C)(C)C2 (stereo unspecified) [US20250313563, Compound 943533]
< 5.30 | < 5.30 | CC[C@]1(c2cccc(C(F)(F)F)c2)C2=C(N=NC2)NC2=C1C(=O)N(C)C2(C)C [US20250313563, Compound 918251]
< 5.30 | < 5.30 | CC1(C)CC(=O)C2=C(C1)NC1=C(CN=N1)C21CN(S(=O)(=O)c2cccnc2)C1 [US20250313563, Compound 913265]
> 7.00 | > 7.00 | CCC1(c2cccc(-c3c(C)nn(C)c3C)c2)C2=C(CC(C)(C)NC2=O)NC2N=NC(C)=C21 (stereo unspecified) [US20250313563, Compound 945598]
5.30 to 6.00 | 5.30 to 6.00 | CC1(C)CC(=O)C2=C(C1)NC1=C(CN=N1)[C@]21CCOC(C)(C)C1 [US20250313563, Compound 924298]
> 7.00 | 5.30 to 6.00 | CCC1(c2cccc(-c3ccnc(C(C)(C)O)c3)c2)C2=CN=NC2NC2=C1C(=O)CC(C)(C)C2 (stereo unspecified) [US20250313563, Compound 943536]
5.30 to 6.00 | 6.00 to 7.00 | CC(C)(C)CC1N=NC2=C1[C@](C)(c1cc(S(C)(=O)=O)ccc1F)C1=C(CC(C)(C)CC1=O)N2 (stereo partly specified) [US20250313563, Compound 125976]
> 7.00 | > 7.00 | CCC1(c2cccc(N(C)c3ncccn3)c2)C2=C(CC(C)(C)NC2=O)NC2N=NC(C)=C21 (stereo unspecified) [US20250313563, Compound 948175]
5.30 to 6.00 | < 5.30 | CC[C@]1(c2cccc(C3=C4CC=CC(F)=C4N=CC3)c2)C2=CN=NC2NC2=C1C(=O)NC(C)(C)C2 (stereo partly specified) [US20250313563, Compound 948813]
> 7.00 | > 7.00 | Cc1c(S(=O)(=O)N2CCC3(CC2)C2=C(N=NC2)NC2=C3C(=O)CC(C)(C)C2)cnn1C [US20250313563, Compound 947460]
6.00 to 7.00 | < 5.30 | CC[C@]1(c2cccc(C3=C4CC=C(C)N=C4N=CC3)c2)C2=CN=NC2NC2=C1C(=O)NC(C)(C)C2 (stereo partly specified) [US20250313563, Compound 948151]
6.00 to 7.00 | < 5.30 | Cc1cc(-c2cccc3c2CCC[C@]32C3=CN=NC3NC3=C2C(=O)CC(C)(C)C3)ccn1 (stereo partly specified) [US20250313563, Compound 945550]
> 7.00 | > 7.00 and 6.00 to 7.00 | CCC1(c2cccc(-c3ccncc3C)c2)C2=C(CC(C)(C)CC2=O)NC2N=NC(C(F)(F)F)=C21 (stereo unspecified) [US20250313563, Compound 945527]
5.30 to 6.00 | < 5.30 | CC(C)[C@H]1C[C@@]2(CCO1)C1=C(N=NC1)NC1=C2C(=O)CC(C)(C)C1 [US20250313563, Compound 884014]
> 7.00 | 6.00 to 7.00 | CC1(C)CC(=O)C2=C(C1)NC1=C(CN=N1)C21CC(C)(C)C1 [US20250313563, Compound 883864]
6.00 to 7.00 | 5.30 to 6.00 | CCC1(c2cccc(N(C)C(=O)CN3CCCC3)c2)C2=CN=NC2NC2=C1C(=O)CC(C)(C)C2 (stereo unspecified) [US20250313563, Compound 909202]
6.00 to 7.00 | 5.30 to 6.00 | CC[C@]1(c2cccc(-c3c(C)nn(C)c3C)c2)C2=C(CC(C)(C)NC2=O)NC2N=NC(C(F)(F)F)=C21 (stereo partly specified) [US20250313563, Compound 948417]
6.00 to 7.00 | 5.30 to 6.00 | CC[C@]1(c2cccc(N3CCOc4ncccc43)c2)C2=CN=NC2NC2=C1C(=O)CC(C)(C)C2 (stereo partly specified) [US20250313563, Compound 932643]
